Measured values taken from PMC10847848, “Production of recombinant intact and N-terminal truncated lipoxygenase isozyme III expressed in Saccharomyces cerevisiae and its influence on glutenin polypeptides” (Food Chemistry: Molecular Sciences, 2024).

Legend:
recombinant Mini-LOX III = molecular target: T1, recombinant Mini-LOX III (Triticum aestivum, UniProt F1DTB8); assay: conjugated diene absorbance at […] nm, Lineweaver-Burk; type: biochemical; settings: crude yeast extract in 50 mM phosphate pH 7.6 (extraction buffer); methods print linoleic acid range as 10 mM to 70 mM, conflicting with Km in µM
T1 construct: gene LOX3; cut placed by alignment to soybean Mini-LOX STPIEFHSFQ; pGK423, S. cerevisiae BY4741; crude soluble extract
T1 sequence (F1DTB8 343-878 limits assumed): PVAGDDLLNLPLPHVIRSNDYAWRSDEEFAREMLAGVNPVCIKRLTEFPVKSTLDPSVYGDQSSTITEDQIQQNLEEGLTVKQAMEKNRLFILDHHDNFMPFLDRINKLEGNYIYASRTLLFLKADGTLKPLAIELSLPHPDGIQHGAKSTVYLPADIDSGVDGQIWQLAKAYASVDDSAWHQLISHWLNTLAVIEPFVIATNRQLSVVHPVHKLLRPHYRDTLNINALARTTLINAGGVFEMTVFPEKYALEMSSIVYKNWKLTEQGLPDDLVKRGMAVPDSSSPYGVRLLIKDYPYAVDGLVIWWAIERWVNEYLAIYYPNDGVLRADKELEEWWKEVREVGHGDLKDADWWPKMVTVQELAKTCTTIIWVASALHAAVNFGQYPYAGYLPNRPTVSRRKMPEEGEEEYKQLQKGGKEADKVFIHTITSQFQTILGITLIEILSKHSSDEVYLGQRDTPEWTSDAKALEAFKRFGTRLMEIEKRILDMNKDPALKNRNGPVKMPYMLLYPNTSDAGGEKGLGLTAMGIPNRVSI

recombinant LOX III = molecular target: T2, recombinant LOX III (Triticum aestivum, UniProt F1DTB8); assay: as above; type: biochemical; settings: crude yeast extract in 50 mM phosphate pH 7.6 (extraction buffer); methods print linoleic acid range as 10 mM to 70 mM, conflicting with Km in µM
T2 construct: gene LOX3; full length, 878 residues, 95 kDa; codon-optimised; LOX III-2A-mClover3 in pGK423, S. cerevisiae BY4741; crude soluble extract
T2 sequence (F1DTB8 1-878): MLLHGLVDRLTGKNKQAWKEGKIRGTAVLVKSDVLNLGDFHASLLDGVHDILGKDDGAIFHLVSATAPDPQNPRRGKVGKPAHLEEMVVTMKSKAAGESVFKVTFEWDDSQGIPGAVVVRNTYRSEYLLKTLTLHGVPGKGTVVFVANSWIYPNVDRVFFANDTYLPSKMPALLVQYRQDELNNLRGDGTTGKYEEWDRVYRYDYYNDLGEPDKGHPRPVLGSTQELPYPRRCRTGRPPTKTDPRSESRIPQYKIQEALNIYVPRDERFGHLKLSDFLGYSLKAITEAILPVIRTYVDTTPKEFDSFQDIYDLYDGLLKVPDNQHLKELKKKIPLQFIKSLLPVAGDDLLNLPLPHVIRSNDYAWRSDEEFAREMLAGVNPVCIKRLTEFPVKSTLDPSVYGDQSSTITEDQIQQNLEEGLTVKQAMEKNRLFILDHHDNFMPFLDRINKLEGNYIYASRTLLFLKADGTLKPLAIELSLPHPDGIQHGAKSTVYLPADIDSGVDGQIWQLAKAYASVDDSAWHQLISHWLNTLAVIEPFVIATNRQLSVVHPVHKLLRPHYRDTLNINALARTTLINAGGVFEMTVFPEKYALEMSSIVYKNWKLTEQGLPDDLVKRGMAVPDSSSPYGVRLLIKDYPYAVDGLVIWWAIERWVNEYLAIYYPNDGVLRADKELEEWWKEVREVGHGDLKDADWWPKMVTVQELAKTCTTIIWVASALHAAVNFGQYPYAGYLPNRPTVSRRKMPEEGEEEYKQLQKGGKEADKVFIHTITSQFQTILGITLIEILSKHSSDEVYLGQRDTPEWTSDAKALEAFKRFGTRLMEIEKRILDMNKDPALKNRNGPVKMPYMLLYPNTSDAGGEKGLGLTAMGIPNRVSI

**Q.** `CCCCC/C=C\C/C=C\CCCCCCCC(=O)O` [linoleic acid] was tested. Which Km (recombinant Mini-LOX III) did it give?
**A.** 21.3 µM

**Q.** And the Km (recombinant LOX III)?
**A.** 25.7 µM
